Data set [1] has as its target Carbonic anhydrase 6 (Homo sapiens) (UniProt P23280). Kind of data set: Activation of human recombinant carbonic anhydrase 6 by stopped flow CO2 hydration method.
Data set [2] concerns the target Carbonic anhydrase 9 (Homo sapiens) (UniProt Q16790). Kind of data set: Activation of human recombinant carbonic anhydrase 9 catalytic domain by stopped flow CO2 hydration method.
For data set [3], the target named is Carbonic anhydrase 5A, mitochondrial (Homo sapiens) (UniProt P35218). Nature of the data set: Activation of human recombinant carbonic anhydrase 5A by stopped flow CO2 hydration method.
Sequence of Carbonic anhydrase 5A, mitochondrial (Homo sapiens) (P35218 whole entry): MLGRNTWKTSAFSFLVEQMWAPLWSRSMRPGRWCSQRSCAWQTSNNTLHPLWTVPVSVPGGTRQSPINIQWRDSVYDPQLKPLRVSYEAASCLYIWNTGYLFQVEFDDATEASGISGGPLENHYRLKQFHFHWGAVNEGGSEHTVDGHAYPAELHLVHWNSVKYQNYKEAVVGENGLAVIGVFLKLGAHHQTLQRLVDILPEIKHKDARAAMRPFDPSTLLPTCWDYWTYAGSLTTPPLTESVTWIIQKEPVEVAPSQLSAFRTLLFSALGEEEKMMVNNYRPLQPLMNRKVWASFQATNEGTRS
Data set [4] concerns Rattus norvegicus. Nature of the data set: Activation of carbonic anhydrase in Sprague-Dawley rat red blood cells at 1 mg/kg, po after 3 hrs by colorimetry relative to control. The class given is functional.
Data set [5] deals with Carbonic anhydrase 5B, mitochondrial (Homo sapiens) (UniProt Q9Y2D0). Kind of data set: Activation of human recombinant carbonic anhydrase 5B by stopped flow CO2 hydration method.
Sequence of Carbonic anhydrase 5B, mitochondrial (Homo sapiens) (Q9Y2D0 whole entry): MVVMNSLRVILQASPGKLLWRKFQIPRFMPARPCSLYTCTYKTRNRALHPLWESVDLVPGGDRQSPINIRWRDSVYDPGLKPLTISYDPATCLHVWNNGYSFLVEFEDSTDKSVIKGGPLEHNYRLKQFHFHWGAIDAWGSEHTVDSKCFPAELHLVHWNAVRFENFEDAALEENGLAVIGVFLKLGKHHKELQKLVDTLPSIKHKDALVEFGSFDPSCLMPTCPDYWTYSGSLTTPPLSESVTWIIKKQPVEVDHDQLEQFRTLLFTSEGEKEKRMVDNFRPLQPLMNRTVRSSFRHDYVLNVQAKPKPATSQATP
The nature of data set [6]: Half life in po dosed human plasma. Format: ADME, organism-based.
Data set [7] concerns the target Carbonic anhydrase 2 (Homo sapiens) (UniProt P00918). Kind of data set: Activation of human recombinant carbonic anhydrase 2 by stopped flow CO2 hydration method.
Data set [8] deals with Rattus norvegicus. Nature of the data set: Activation of carbonic anhydrase in Sprague-Dawley rat red blood cells at 1 mg/kg, po after 5 hrs by colorimetry relative to control. Format: functional.
In data set [9] the target is Carbonic anhydrase 7 (Homo sapiens) (UniProt P43166). Kind of data set: Activation of human recombinant carbonic anhydrase 7 by stopped flow CO2 hydration method.
Sequence of Carbonic anhydrase 7 (Homo sapiens) (P43166 whole entry, the tested form may be a part): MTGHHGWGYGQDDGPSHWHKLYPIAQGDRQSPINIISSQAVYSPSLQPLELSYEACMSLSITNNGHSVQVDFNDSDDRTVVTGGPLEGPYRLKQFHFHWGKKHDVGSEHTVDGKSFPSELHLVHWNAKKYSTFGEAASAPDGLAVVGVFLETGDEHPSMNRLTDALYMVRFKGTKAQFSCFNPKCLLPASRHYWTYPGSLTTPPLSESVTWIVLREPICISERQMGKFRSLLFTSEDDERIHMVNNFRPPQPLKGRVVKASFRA
For data set [10], the target named is Carbonic anhydrase 12 (Homo sapiens) (UniProt O43570). Nature of the data set: Activation of human recombinant carbonic anhydrase 12 catalytic domain by stopped flow CO2 hydration method.
Sequence of Carbonic anhydrase 12 (Homo sapiens) (O43570 whole entry, the tested form may be a part): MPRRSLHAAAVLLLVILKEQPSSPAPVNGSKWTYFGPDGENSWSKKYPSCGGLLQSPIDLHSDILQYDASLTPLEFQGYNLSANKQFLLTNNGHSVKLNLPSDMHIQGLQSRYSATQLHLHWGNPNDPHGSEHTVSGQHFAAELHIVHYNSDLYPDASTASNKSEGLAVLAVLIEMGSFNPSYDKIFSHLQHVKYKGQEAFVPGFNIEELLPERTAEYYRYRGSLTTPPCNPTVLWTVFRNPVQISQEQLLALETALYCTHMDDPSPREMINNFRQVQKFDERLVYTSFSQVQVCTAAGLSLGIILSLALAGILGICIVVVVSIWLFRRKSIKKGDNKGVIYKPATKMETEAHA
In data set [11] the target is Carbonic anhydrase 14 (Homo sapiens) (UniProt Q9ULX7). Nature of the data set: Activation of human recombinant carbonic anhydrase 14 by stopped flow CO2 hydration method.
Sequence of Carbonic anhydrase 14 (Homo sapiens) (Q9ULX7 whole entry): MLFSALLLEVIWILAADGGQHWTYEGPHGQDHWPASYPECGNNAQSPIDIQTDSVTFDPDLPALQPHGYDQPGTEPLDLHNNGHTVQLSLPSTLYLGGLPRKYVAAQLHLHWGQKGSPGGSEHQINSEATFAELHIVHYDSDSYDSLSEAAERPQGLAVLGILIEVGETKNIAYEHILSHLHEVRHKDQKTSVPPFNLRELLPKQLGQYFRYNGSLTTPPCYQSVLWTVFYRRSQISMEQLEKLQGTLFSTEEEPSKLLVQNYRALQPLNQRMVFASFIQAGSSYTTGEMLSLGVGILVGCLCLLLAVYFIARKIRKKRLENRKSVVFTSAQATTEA
Data set [12] deals with Rattus norvegicus. Nature of the data set: Activation of carbonic anhydrase in Sprague-Dawley rat red blood cells at 1 mg/kg, po after 1 hr by colorimetry relative to control. The class given is functional.
The target of data set [13] is Carbonic anhydrase 4 (Homo sapiens) (UniProt P22748). Nature of the data set: Activation of human recombinant carbonic anhydrase 4 by stopped flow CO2 hydration method.
Sequence of Carbonic anhydrase 4 (Homo sapiens) (P22748 whole entry): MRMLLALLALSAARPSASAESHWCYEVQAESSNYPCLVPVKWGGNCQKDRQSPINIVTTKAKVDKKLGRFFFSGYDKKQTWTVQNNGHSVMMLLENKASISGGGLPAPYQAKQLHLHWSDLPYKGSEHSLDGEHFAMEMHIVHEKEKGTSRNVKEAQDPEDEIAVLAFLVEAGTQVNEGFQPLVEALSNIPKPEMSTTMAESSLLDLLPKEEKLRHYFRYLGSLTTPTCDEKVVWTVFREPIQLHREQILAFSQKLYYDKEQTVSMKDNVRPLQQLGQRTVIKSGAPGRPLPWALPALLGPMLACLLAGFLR
Data set [14] deals with Carbonic anhydrase 3 (Homo sapiens) (UniProt P07451). Kind of data set: Activation of human recombinant carbonic anhydrase 3 by stopped flow CO2 hydration method.
Sequence of Carbonic anhydrase 3 (Homo sapiens) (P07451 whole entry): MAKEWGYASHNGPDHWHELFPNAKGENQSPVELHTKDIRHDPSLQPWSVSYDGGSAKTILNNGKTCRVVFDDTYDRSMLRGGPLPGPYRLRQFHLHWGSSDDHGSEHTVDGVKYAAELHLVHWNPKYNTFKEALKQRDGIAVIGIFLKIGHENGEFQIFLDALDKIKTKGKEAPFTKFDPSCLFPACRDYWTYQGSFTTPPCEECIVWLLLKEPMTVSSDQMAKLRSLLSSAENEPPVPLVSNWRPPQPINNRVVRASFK
In data set [15] the target is Carbonic anhydrase 13 (Mus musculus) (UniProt Q9D6N1). Nature of the data set: Activation of mouse recombinant carbonic anhydrase 13 by stopped flow CO2 hydration method.
Sequence of Carbonic anhydrase 13 (Mus musculus) (Q9D6N1 whole entry, looked up): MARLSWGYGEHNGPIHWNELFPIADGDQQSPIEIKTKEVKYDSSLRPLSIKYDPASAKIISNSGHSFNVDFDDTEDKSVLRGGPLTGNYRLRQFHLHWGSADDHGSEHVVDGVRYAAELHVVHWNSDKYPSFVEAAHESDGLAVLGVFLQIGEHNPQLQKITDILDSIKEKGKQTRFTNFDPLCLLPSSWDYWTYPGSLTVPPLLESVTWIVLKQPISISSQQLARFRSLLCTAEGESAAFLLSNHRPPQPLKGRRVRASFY
For data set [16], the target named is Carbonic anhydrase 1 (Homo sapiens) (UniProt P00915). Kind of data set: Activation of human recombinant carbonic anhydrase 1 by stopped flow CO2 hydration method.
Sequence of Carbonic anhydrase 1 (Homo sapiens) (P00915 2-261 limits assumed): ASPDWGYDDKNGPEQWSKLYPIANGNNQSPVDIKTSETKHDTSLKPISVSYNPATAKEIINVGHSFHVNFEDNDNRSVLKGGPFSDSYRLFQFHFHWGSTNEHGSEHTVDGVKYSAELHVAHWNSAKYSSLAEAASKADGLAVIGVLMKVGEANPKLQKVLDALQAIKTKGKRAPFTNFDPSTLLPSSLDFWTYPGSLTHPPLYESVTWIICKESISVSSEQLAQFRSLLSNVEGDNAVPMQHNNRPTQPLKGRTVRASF

Sequence of Carbonic anhydrase 6 (Homo sapiens) (P23280 whole entry, the tested form may be a part): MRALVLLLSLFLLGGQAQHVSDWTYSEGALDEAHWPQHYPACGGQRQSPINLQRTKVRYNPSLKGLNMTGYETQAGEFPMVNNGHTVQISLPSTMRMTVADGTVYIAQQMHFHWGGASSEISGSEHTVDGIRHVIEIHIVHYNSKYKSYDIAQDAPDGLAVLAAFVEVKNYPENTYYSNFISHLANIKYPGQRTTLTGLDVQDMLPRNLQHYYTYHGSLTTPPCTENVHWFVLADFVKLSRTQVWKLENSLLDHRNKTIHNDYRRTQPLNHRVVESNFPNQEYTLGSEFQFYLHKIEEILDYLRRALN

`NCCN1CCNCC1`: in data set [1], the KA was 9.54 µM.

As to `NCCc1c[nH]cn1`, the KA in [1] was 6.5 µM.

Broadly, the half-life is the time needed for the level to fall by half in the phase considered. High values mean slow decline, low ones rapid decline. Consider `CCCc1nn(C)c2c(=O)[nH]c(-c3cc(S(=O)(=O)N4CCN(C)CC4)ccc3OCC)nc12.O=C(O)CC(O)(CC(=O)O)C(=O)O` [SILDENAFIL CITRATE], for which the KA amounted to 34 µM in [2]; 16.8 µM in data set [3]; 6.54 µM in data set [5]; 2.37 µM in data set [1]; 31.3 µM in data set [7]; 72.9 µM in data set [9]. For the same compound, the KA in data set [10] was 73 µM; in [11] it was 32.4 µM; in [13], 15.2 µM; in [14] it was 13.4 µM; in [15] it was 27.5 µM; in data set [16] it was 1.08 µM. Besides, the Activity in data set [4] is 59.6%; in [8], 79.19%; in data set [12] it was 84.47%. For the same compound, the half-life in data set [6] is 4 h.

The values are drawn from ChEMBL document CHEMBL1153513, “Sildenafil is a strong activator of mammalian carbonic anhydrase isoforms I-XIV” (Bioorg Med Chem, 2009).
